Patent publication US20090318413A1, “BRONCHIAL SMOOTH MUSCLE REMODELING INVOLVES CALCIUM-DEPENDENT ENHANCED MITOCHONDRIAL BIOGENESIS IN ASTHMA” (UNIVERSITE VICTOR SEGALEN BORDEAUX 2, priority 2008, published 2009)
Where two headings read alike, the source gives them in different places.

Columns and labels:
[1] = tested on: BSM cells; experiment: Microspectrofluorimetry of intracellular calcium (indo-1) after acetylcholine stimulation; assay type: cell-based, human; conditions: asthmatic BSM cells; 10^-5 M acetylcholine; 1 μM D600 with 2 mM Ca2+, or 400 μM EGTA without extracellular calcium
Protocol: Change in growth-arrested BSM cell intracellular calcium concentration ([Ca^2+]i), was assessed using the Ca^2+-sensitive probe indo-1, as previously described (Berger et al., J. Appl. Physiol. 91:995-1003 (2001); Trian et al., Am. J. Respir. Cell Mol. Biol. 34:49-55 (2006)). In brief, cells were loaded with indo-1 (Calbiochem) and mounted in a perfusion chamber continuously perfused with phosphate salt solution containing either 2 mM Ca2+ in the absence or presence of 1 μM D600, or 400 μM EGTA (Sigma-Aldrich) in the absence of extracellular calcium. BSM cells were stimulated with 10^−5 M acetylcholine or histamine (both from Sigma-Aldrich). Individual cell calcium levels were monitored continuously. Results were expressed as the mean±the SEM of resting or peak of [Ca^2+]i rises (in […]) and area under the curves (nanomoles/second). Experiments were carried out at room temperature (22-25° C.).

[2] = tested on: CaMK-IV; experiment: Western blot of phosphorylated CaMK-IV in BSM cells; assay type: cell-based, human; conditions: asthmatic BSM cells; 1 μM D600
Protocol: (§1) To analyze the mitochondrial ultrastructure, BSM cells were growth arrested, as described in the previous section, for 6 d. Three million cells were then collected and centrifuged at 400 g for 5 min. Cell pellets were fixed in 2.5% glutaraldehyde for 2 h at 4° C. and processed for electron microscopy, as described in the previous section. Growth curves were built to assess the role of mitochondria in cell proliferation. For this purpose, 25,000 BSM cells were plated on 75-cm^2 flasks and cultured with 10% FCS-DME containing either 4.5 g/liter galactose or 4.5 g/liter glucose. […] For these latter experiments, medium was changed every 24 h, and, at the indicated time, BSM cells were harvested by trypsinization and counted in triplicate using a cytometer.
(§2) Whole lysates from BSM cells were collected using 1% Triton X-100 lysis buffer in the presence of 2 mM Na orthovanadate, 1 mM EDTA, 50 μg/ml aprotinin, 100 μM leupeptin, 1 mM 1.4 Dithio-DL-Treitol, and 1 mM amino-ethyl-benzenesulfonyl fluoride hydrochloride (all from Sigma-Aldrich). […] Blot images were acquired using BioCaptMW (Thermo Fisher Scientific), and band densities were quantified using ImageJ software.

[3] = tested on: PGC-1α; experiment: Western blot of PGC-1α in BSM cells; assay type: cell-based, human; conditions: asthmatic BSM cells; 1 μM D600 for 48 h
Protocol: as §1, §2

[4] = tested on: NRF-1; experiment: Western blot of NRF-1 in BSM cells; assay type: cell-based, human; conditions: asthmatic BSM cells; 1 μM D600 for 48 h
Protocol: as §1, §2

[5] = tested on: mtTFA; experiment: Western blot of mtTFA in BSM cells; assay type: cell-based, human; conditions: asthmatic BSM cells; 1 μM D600 for 48 h
Protocol: as §1, §2

[6] = tested on: porin; experiment: Mitochondrial mass by porin content (Western blot) in BSM cells; assay type: cell-based, human
Protocol: (§3) To analyze the mitochondrial ultrastructure, BSM cells were growth arrested, as described in the previous section, for 6 d. Three million cells were then collected and centrifuged at 400 g for 5 min. Cell pellets were fixed in 2.5% glutaraldehyde for 2 h at 4° C. and processed for electron microscopy, as described in the previous section. Growth curves were built to assess the role of mitochondria in cell proliferation. For this purpose, 25,000 BSM cells were plated on 75-cm^2 flasks and cultured with 10% FCS-DME containing either 4.5 g/liter galactose or 4.5 g/liter glucose. In another set of experiments, we investigated the effects of 50 μg/liter ethidium bromide (Qbiogene) for up to 33 d, 1.3 g/liter cyclic cGMP (3 mM; Sigma-Aldrich) for up to 6 d, or […] D600, i.e., methoxyverapamil or gallopamil (1 μM; Sigma-Aldrich) for up to 2 d in 10% FCS-DME containing 4.5 g/liter glucose. For these latter experiments, medium was changed every 24 h, and, at the indicated time, BSM cells were harvested by trypsinization and counted in triplicate using a cytometer.
Whole lysates from BSM cells were collected using 1% Triton X-100 lysis buffer in the presence of 2 mM Na orthovanadate, 1 mM EDTA, 50 μg/ml aprotinin, 100 μM leupeptin, 1 mM 1.4 Dithio-DL-Treitol, and 1 mM amino-ethyl-benzenesulfonyl fluoride hydrochloride (all from Sigma-Aldrich). Cellular extracts were reduced with mercaptoethanol, subjected to electrophoresis on a 10% acrylamide reducing gel, and transferred to PVDF membranes (Immobilon TM-P; Millipore). The immunoblots were then developed using mouse anti-human porin (MitoSciences), mouse anti-human α-actin (Sigma-Aldrich), rabbit anti-human phospho-CaMK-IV, rabbit anti-human PGC-1α, rabbit anti-human NRF-1, or rabbit anti-human mitochondrial transcription factor A (mtTFA; all purchased from Santa Cruz Biotechnology, Inc.) for 14 h at 4° C. For amplification, biotinylated goat secondary antibody anti-mouse IgG (Bio-Rad Laboratories) or anti-rabbit IgG (Santa Cruz Biotechnology, Inc.) for 2 h at room temperature and a streptavidin-biotinylated horseradish peroxidase complex (Dako) were used. […] Blot images were acquired using BioCaptMW (Thermo Fisher Scientific), and band densities were quantified using ImageJ software.

[7] = tested on: BSM cells; experiment: BrdU incorporation (DNA synthesis) in BSM cells; assay type: cell-based, human; conditions: 10% FCS-DME glucose, ethidium bromide or cyclic GMP 24 h
Protocol: Growth-arrested BSM cells were cultured in 96-well plates for 24 h and stimulated with 10% FCS-DME containing glucose, galactose, ethidium bromide, or cyclic GMP for 24 h or containing D600 for 48 h, as described above. Control BSM cells remained in serum-deprived DME. DNA synthesis was measured using the BrdU kit according to the manufacturer's instructions (Roche). In brief, BSM cells were incubated with 10 μM BrdU for 2 h at 37° C. and fixed for 20 min at room temperature. Cells were denaturized for 30 min and incubated with the anti-BrdU antibody for 2 h at room temperature. Absorbance was measured at 370 nm in a microplate reader in triplicate. Results are expressed as a normalized ratio of BrdU incorporation, i.e. absorbance for test condition divided by absorbance for control serum-deprived condition.

[8] = tested on: BSM cells; experiment: BSM cell growth curves (cell counting), doubling time and proliferation; assay type: cell-based, human; conditions: for doubling time of cell growth: glucose medium + 50 μg/liter ethidium bromide or 3 mM cyclic GMP; for proliferation of BSM cells: glucose medium + ethidium bromide or cyclic GMP
Protocol: as §3

[9] = tested on: U937, L6, and PC12; conditions: various cell lines, including U937, L6, and PC12; cited from earlier work
[10] = tested on: vascular smooth muscle cells; conditions: mesangial cells and various fibroblasts; cited from earlier work
[11] = tested on: endothelial cells; conditions: cited from earlier work

5-[2-(3,4-dimémethoxyphenyl)ethyl-methylamino]-2-propan-2-yl-2-(3,4,5-triméthoxyphenyl)pentanenitrile hydrochloride [D600]
abnormal calcium response (area under the curve) to acetylcholine [1]: abolished | activation (phosphorylation) of CaMK-IV [2]: inhibited | activation of mitochondrial biogenesis through PGC-α [3]: inhibited | activation of mitochondrial biogenesis through NRF-1 [4]: inhibited | activation of mitochondrial biogenesis through mtTFA [5]: inhibited | mitochondrial content (amount of porin) [6]: blocks | BrdU incorporation ([7]; asthmatic BSM cells, 1 μM D600 48 h): significantly inhibited

O=C(O)CN(CCOCCOCCN(CC(=O)O)CC(=O)O)CC(=O)O [EGTA]
abnormal calcium response (area under the curve) to acetylcholine [1]: abolished

Nc1nc2c(ncn2[C@@H]2O[C@@H]3COP(=O)(O)O[C@H]3[C@H]2O)c(=O)[nH]1 [cyclic GMP]
mitochondrial content (amount of porin) ([6]; COPD BSM cells, ethidium bromide or cyclic GMP 6 d): increased | mitochondrial content (amount of porin) ([6]; asthmatic BSM cells, ethidium bromide or cyclic GMP 6 d, 1 μM D600 48 h): failed to additionally increase | mitochondrial content (amount of porin) ([6]; control BSM cells, ethidium bromide or cyclic GMP 6 d): increased | doubling time of cell growth ([8]; COPD BSM cells): significantly decreased | proliferation of BSM cells ([8]; COPD BSM cells): increased | doubling time of cell growth ([8]; asthmatic BSM cells): had no effect | proliferation of BSM cells ([8]; asthmatic BSM cells): had no effect | doubling time of cell growth ([8]; control BSM cells): decreased | proliferation of BSM cells ([8]; control BSM cells): increased | BrdU incorporation ([7]; COPD BSM cells): increased | BrdU incorporation ([7]; control BSM cells): increased | PGC-1α and mitochondrial biogenesis [9]: activate | proliferation [10]: inhibit | proliferation of endothelial cells [11]: increased
